Legend:
U2OS cells [1] = assay: p53-responsive luciferase reporter assay; type: cell-based; conditions: U2OS BP100-luc/CMV-lacZ, 30 μM, 18 h
HCT-116 p53+/+ cells = assay: MTT assay; type: cell-based; conditions: 200 μM, 48 h; for selectivity toward wild-type p53 cells versus p53-deletion cells: HCT-116 p53+/+ vs p53–/–; for suppression of proliferation of wild-type p53 cells: HCT-116 p53+/+
[2] = Cellular functional assay; type: cell-based; conditions: data not shown
U2OS cells [3] = assay: Western blotting of p21, MDM2 and p53 expression; type: cell-based; conditions: 30 μM, 16 h
MDM2 = MDM2 (Homo sapiens, UniProt Q00987); assay: Fluorescence polarization binding affinity; conditions: methyl to 4-chloro phenyl mutation
Chain of MDM2 (Q00987 1-150): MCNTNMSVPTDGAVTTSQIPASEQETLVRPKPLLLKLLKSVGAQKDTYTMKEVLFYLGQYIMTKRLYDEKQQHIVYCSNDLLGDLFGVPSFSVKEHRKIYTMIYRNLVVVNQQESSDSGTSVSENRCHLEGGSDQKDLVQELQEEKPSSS

| Structure (SMILES) | luciferase activity compared with p53 peptide (U2OS cells [1]) | selectivity toward wild-type p53 cells versus p53-deletion cells (HCT-116 p53+/+ cells) | suppression of proliferation of wild-type p53 cells (HCT-116 p53+/+ cells) | activity in the cellular functional assay [2] | MDM2 level (U2OS cells [3]) | p21 level (U2OS cells [3]; compared to control (PBS buffer)) | improvement of Kd (MDM2) |
| --- | --- | --- | --- | --- | --- | --- | --- |
| CC(=O)N[C@@H](CC(C)C)CN(CC(=O)N[C@@H](Cc1ccccc1)CN(CC(=O)N[C@@H](CCC(=O)O)CN(CC(=O)N[C@@H](Cc1c[nH]c2ccccc12)CN(CC(=O)N[C@@H](CCCCN)CN(CC(=O)N[C@@H](CC1CCC1)CN(CC(=O)N[C@@H](C)CN(CC(N)=O)S(C)(=O)=O)S(=O)(=O)CC(C)C)S(C)(=O)=O)S(C)(=O)=O)S(C)(=O)=O)S(C)(=O)=O)S(=O)(=O)c1ccc(Cl)cc1 [PS10] | marginally increased luciferase activity | more selective toward wild-type p53 cells than p53-deletion cells | suppress proliferation of wild-type p53 cells more efficiently than the p53 peptides | none of them is active |  |  |  |
| CC(=O)N[C@@H](CC(C)C)CN(CC(=O)N[C@@H](Cc1ccccc1)CN(CC(=O)N[C@@H](CCC(=O)O)CN1CC(=O)N[C@@H](Cc2c[nH]c3ccccc23)CN(S(C)(=O)=O)CC(=O)N[C@@H](CCCCN)CN(CC(=O)N[C@@H](CC(C)C)CN(CC(=O)N[C@@H](C)CN(CC(N)=O)S(C)(=O)=O)S(=O)(=O)CC(C)C)S(=O)(=O)CCCC/C=C\CCCCS1(=O)=O)S(C)(=O)=O)S(=O)(=O)c1ccc(Cl)cc1 [PS11] |  | more selective toward wild-type p53 cells than p53-deletion cells | suppress proliferation of wild-type p53 cells more efficiently than the p53 peptides |  | increased moderately | increased significantly |  |
| CC(=O)N[C@@H](CC(C)C)CN(CC(=O)N[C@@H](Cc1ccccc1)CN(CC(=O)N[C@@H](CCC(=O)O)CN(CC(=O)N[C@@H](Cc1c[nH]c2ccccc12)CN(CC(=O)N[C@@H](CCCCN)CN(CC(=O)N[C@@H](CC(C)C)CN(CC(=O)N[C@@H](C)CN(CC(N)=O)S(C)(=O)=O)S(=O)(=O)CC(C)C)S(C)(=O)=O)S(C)(=O)=O)S(C)(=O)=O)S(C)(=O)=O)S(=O)(=O)c1ccc(Cl)cc1 [PS4] | marginally increased luciferase activity |  |  | none of them is active |  |  | ∼fourfold improvement |
| CC(=O)N[C@@H](CC(C)C)CN(CC(=O)N[C@@H](Cc1ccccc1)CN(CC(=O)N[C@@H](CCC(=O)O)CN1CC(=O)N[C@@H](Cc2c[nH]c3ccccc23)CN(S(C)(=O)=O)CC(=O)N[C@@H](CCCCN)CN(CC(=O)N[C@@H](CC(C)C)CN(CC(=O)N[C@@H](C)CN(CC(N)=O)S(C)(=O)=O)S(=O)(=O)CC(C)C)S(=O)(=O)CC/C=C/CCCCS1(=O)=O)S(C)(=O)=O)S(=O)(=O)c1ccc(Cl)cc1 [PS12] |  |  |  |  | increased moderately |  |  |
